Measured values as given in PubChem BioAssay (NCI).
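Dose response: 5 concentrations. Exposure: 48 h. Format: 96-well plates. Endpoint: linear interpolation; highest concentration if not reached. TGI marks complete inhibition of growth.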

Experiments:
Assay in all cases: NCI-60 cell line screen, 48 h
786-0 renal = tested on: 786-0 renal
A498 renal = tested on: A498 renal
A549 NSCLC = tested on: A549 NSCLC
ACHN renal = tested on: ACHN renal
BT-549 breast = tested on: BT-549 breast
CAKI-1 renal = tested on: CAKI-1 renal
CCRF-CEM leukemia = tested on: CCRF-CEM leukemia
COLO 205 colon = tested on: COLO 205 colon
DU-145 prostate = tested on: DU-145 prostate
EKVX NSCLC = tested on: EKVX NSCLC
HCC-2998 colon = tested on: HCC-2998 colon
HCT-116 colon = tested on: HCT-116 colon
HCT-15 colon = tested on: HCT-15 colon
HL-60(TB) leukemia = tested on: HL-60(TB) leukemia
HOP-62 NSCLC = tested on: HOP-62 NSCLC
HOP-92 NSCLC = tested on: HOP-92 NSCLC
HS 578T breast = tested on: HS 578T breast
HT29 colon = tested on: HT29 colon
IGROV1 ovarian = tested on: IGROV1 ovarian
K-562 leukemia = tested on: K-562 leukemia
KM12 colon = tested on: KM12 colon
LOX IMVI melanoma = tested on: LOX IMVI melanoma
M14 melanoma = tested on: M14 melanoma
MALME-3M melanoma = tested on: MALME-3M melanoma
MCF7 breast = tested on: MCF7 breast
MDA-MB-231 breast = tested on: MDA-MB-231 breast
MDA-MB-435 = tested on: MDA-MB-435
MDA-N = tested on: MDA-N
MOLT-4 leukemia = tested on: MOLT-4 leukemia
NCI-H226 lung = tested on: NCI-H226 lung
NCI-H460 lung = tested on: NCI-H460 lung
NCI-H522 lung = tested on: NCI-H522 lung
NCI/ADR-RES ovarian = tested on: NCI/ADR-RES ovarian
OVCAR-3 ovarian = tested on: OVCAR-3 ovarian
OVCAR-4 ovarian = tested on: OVCAR-4 ovarian
OVCAR-5 ovarian = tested on: OVCAR-5 ovarian
OVCAR-8 ovarian = tested on: OVCAR-8 ovarian
PC-3 prostate = tested on: PC-3 prostate
RPMI-8226 leukemia = tested on: RPMI-8226 leukemia
RXF 393 renal = tested on: RXF 393 renal
SF-268 CNS = tested on: SF-268 CNS
SF-295 CNS = tested on: SF-295 CNS
SF-539 CNS = tested on: SF-539 CNS
SK-MEL-2 melanoma = tested on: SK-MEL-2 melanoma
SK-MEL-28 melanoma = tested on: SK-MEL-28 melanoma
SK-MEL-5 melanoma = tested on: SK-MEL-5 melanoma
SK-OV-3 ovarian = tested on: SK-OV-3 ovarian
SN12C renal = tested on: SN12C renal
SNB-19 CNS = tested on: SNB-19 CNS
SNB-75 CNS = tested on: SNB-75 CNS
T-47D breast = tested on: T-47D breast
TK-10 renal = tested on: TK-10 renal
U251 CNS = tested on: U251 CNS
UACC-257 melanoma = tested on: UACC-257 melanoma
UACC-62 melanoma = tested on: UACC-62 melanoma
UO-31 renal = tested on: UO-31 renal
NCI-H23 lung = tested on: NCI-H23 lung
SW-620 colon = tested on: SW-620 colon

`CN1CCN(CCCCNc2cc3c4ccccc4c(NCCCCN4CCN(C)CC4)cc3c3ccccc23)CC1` was tested, and the TGI (786-0 renal) was 3.48 µM, the TGI (A498 renal) was 28.5 µM and the TGI (A549 NSCLC) was 3.21 µM. For the same molecule, the TGI (ACHN renal) was 17.3 µM, the TGI (BT-549 breast) was 14.9 µM and the TGI (CAKI-1 renal) was 25.6 µM. It also gave a TGI (CCRF-CEM leukemia) of 3.07 µM, a TGI (COLO 205 colon) of 14.3 µM and a TGI (DU-145 prostate) of 3.14 µM. The TGI (EKVX NSCLC) was 18.7 µM, the TGI (HCC-2998 colon) was 3.29 µM and the TGI (HCT-116 colon) was 2.13 µM. For the same molecule, the TGI (HCT-15 colon) was 2.88 µM, the TGI (HL-60(TB) leukemia) was 14.9 µM and the TGI (HOP-62 NSCLC) was 7.72 µM. It also gave a TGI (HOP-92 NSCLC) of 28.2 µM, a TGI (HS 578T breast) of 5.65 µM and a TGI (HT29 colon) of 4.19 µM. It also gave a TGI (IGROV1 ovarian) of 5.52 µM, a TGI (K-562 leukemia) of 6.8 µM and a TGI (KM12 colon) of 3.06 µM. The TGI (LOX IMVI melanoma) was 2.42 µM, the TGI (M14 melanoma) was 2.16 µM and the TGI (MALME-3M melanoma) was 5.09 µM. It also gave a TGI (MCF7 breast) of 2.71 µM, a TGI (MDA-MB-231 breast) of 2.89 µM and a TGI (MDA-MB-435) of 0.359 µM. The TGI (MDA-N) was 0.977 µM, the TGI (MOLT-4 leukemia) was 1.88 µM and the TGI (NCI-H226 lung) was 45.4 µM. It also gave a TGI (NCI-H460 lung) of 3.2 µM, a TGI (NCI-H522 lung) of 6.51 µM and a TGI (NCI/ADR-RES ovarian) of 21.6 µM. For the same molecule, the TGI (OVCAR-3 ovarian) was 8.5 µM, the TGI (OVCAR-4 ovarian) was 2.87 µM and the TGI (OVCAR-5 ovarian) was 12.5 µM. The TGI (OVCAR-8 ovarian) was 10.2 µM, the TGI (PC-3 prostate) was 21.2 µM and the TGI (RPMI-8226 leukemia) was 4.14 µM. For the same molecule, the TGI (RXF 393 renal) was 3.13 µM, the TGI (SF-268 CNS) was 8.04 µM and the TGI (SF-295 CNS) was 3.77 µM. For the same molecule, the TGI (SF-539 CNS) was 3.28 µM, the TGI (SK-MEL-2 melanoma) was 16.5 µM and the TGI (SK-MEL-28 melanoma) was 29 µM. It also gave a TGI (SK-MEL-5 melanoma) of 2.85 µM, a TGI (SK-OV-3 ovarian) of 29.4 µM and a TGI (SN12C renal) of 9.27 µM. The TGI (SNB-19 CNS) was 12.5 µM, the TGI (SNB-75 CNS) was 7.8 µM and the TGI (T-47D breast) was 84.2 µM. It also gave a TGI (TK-10 renal) of 18.4 µM, a TGI (U251 CNS) of 4.21 µM and a TGI (UACC-257 melanoma) of 19 µM. For the same molecule, the TGI (UACC-62 melanoma) was 6.05 µM and the TGI (UO-31 renal) was 11.8 µM.
With `C/C(=N\Nc1ncnc2ccccc12)c1ccccn1` the TGI (786-0 renal) was 12.7 µM, the TGI (A498 renal) was 16.4 µM and the TGI (A549 NSCLC) was 32.6 µM. For the same molecule, the TGI (ACHN renal) was 8.46 µM, the TGI (BT-549 breast) was 35.5 µM and the TGI (CAKI-1 renal) was 1.67 µM. For the same molecule, the TGI (COLO 205 colon) was 17.9 µM, the TGI (DU-145 prostate) was 13.7 µM and the TGI (EKVX NSCLC) was over 52.6 µM. It also gave a TGI (HCC-2998 colon) of 36 µM, a TGI (HCT-116 colon) of 13.9 µM and a TGI (HCT-15 colon) of over 56.8 µM. For the same molecule, the TGI (HL-60(TB) leukemia) was 10.7 µM, the TGI (HOP-62 NSCLC) was 1.07 µM and the TGI (HOP-92 NSCLC) was 7.75 µM. The TGI (HS 578T breast) was 47.5 µM, the TGI (HT29 colon) was over 46.6 µM and the TGI (IGROV1 ovarian) was 2.84 µM. It also gave a TGI (K-562 leukemia) of over 4.64 µM, a TGI (KM12 colon) of 22.1 µM and a TGI (LOX IMVI melanoma) of 5.45 µM. It also gave a TGI (M14 melanoma) of 33 µM, a TGI (MALME-3M melanoma) of 1.58 µM and a TGI (MCF7 breast) of 25.1 µM. It also gave a TGI (MDA-MB-435) of 33 µM, a TGI (MDA-N) of 27.5 µM and a TGI (MOLT-4 leukemia) of over 9.41 µM. It also gave a TGI (NCI-H226 lung) of 1.13 µM, a TGI (NCI-H23 lung) of 16.4 µM and a TGI (NCI-H460 lung) of 21.2 µM. It also gave a TGI (NCI-H522 lung) of 1.53 µM, a TGI (NCI/ADR-RES ovarian) of 0.551 µM and a TGI (OVCAR-3 ovarian) of 12.8 µM. The TGI (OVCAR-4 ovarian) was over 51.5 µM, the TGI (OVCAR-5 ovarian) was 64.6 µM and the TGI (OVCAR-8 ovarian) was 2.41 µM. For the same molecule, the TGI (PC-3 prostate) was 31.6 µM, the TGI (RPMI-8226 leukemia) was 1.62 µM and the TGI (RXF 393 renal) was 17.3 µM. It also gave a TGI (SF-268 CNS) of 7.2 µM, a TGI (SF-295 CNS) of 17.9 µM and a TGI (SF-539 CNS) of 3.29 µM. It also gave a TGI (SK-MEL-2 melanoma) of 33.9 µM, a TGI (SK-MEL-28 melanoma) of 45.6 µM and a TGI (SK-MEL-5 melanoma) of 13.2 µM. It also gave a TGI (SK-OV-3 ovarian) of 4.03 µM, a TGI (SN12C renal) of 6.71 µM and a TGI (SNB-19 CNS) of 59.1 µM. It also gave a TGI (SNB-75 CNS) of 39.7 µM, a TGI (SW-620 colon) of 45.6 µM and a TGI (T-47D breast) of 20.7 µM. The TGI (TK-10 renal) was 18.6 µM, the TGI (U251 CNS) was 34.4 µM and the TGI (UACC-257 melanoma) was 8.65 µM. For the same molecule, the TGI (UACC-62 melanoma) was 3.22 µM and the TGI (UO-31 renal) was 1.75 µM.
